The results in this text go back to patent US8048884B2, “Substituted piperazinyl pyrazines and pyridines as 5-HT7 receptor antagonists” (Eli Lilly and Company, priority 2007, dated 2011).

What is called Ki is a measure of affinity in units of concentration, obtained from inhibition or displacement. The low end stands for higher affinity, the high end for lower affinity.

Molecules are shown by their SMILES. Where “and” joins values, the source holds several entries; their conditions need not be identical. Equal values may be shown once.

One experiment deals with T1, 5-HT7 receptor (Homo sapiens, UniProt P34969).
T1 construct: expressed in transfected cells
T1 sequence (P34969 whole entry): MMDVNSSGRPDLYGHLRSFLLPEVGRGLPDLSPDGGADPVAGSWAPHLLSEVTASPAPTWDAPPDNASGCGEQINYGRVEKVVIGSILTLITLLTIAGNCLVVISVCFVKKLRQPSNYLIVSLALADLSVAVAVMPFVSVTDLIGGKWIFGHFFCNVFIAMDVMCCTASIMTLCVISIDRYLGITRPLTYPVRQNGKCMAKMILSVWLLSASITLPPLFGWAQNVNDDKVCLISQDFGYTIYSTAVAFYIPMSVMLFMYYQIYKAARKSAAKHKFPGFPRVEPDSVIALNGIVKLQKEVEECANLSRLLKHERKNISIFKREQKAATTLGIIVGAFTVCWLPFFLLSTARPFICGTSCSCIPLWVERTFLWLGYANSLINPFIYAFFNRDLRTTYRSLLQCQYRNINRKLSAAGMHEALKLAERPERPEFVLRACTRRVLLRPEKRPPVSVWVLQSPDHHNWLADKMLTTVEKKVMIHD
The experiment can be described thus: 5-HT7 receptor affinity: [3H]5-HT radioligand binding assay. Particulars: [3H]5-HT competition, membranes of AV-12 cells. How it is done:
Membranes for affinity and antagonist activity assays are prepared essentially as follows. AV-12 cells, stably expressing the 5-HT7 receptor, are grown as a monolayer in 5×T-150 flasks in DMEM/F12 (3:1) 5% FBS, 20 mM HEPES, […] geneticin, 50 mg/mL tobramycin. After growing to 90% confluence the media is removed and replaced with Hybritech media (a low calcium version of DMEM/F12 media having 11 mg/L calcium) containing 2% horse serum, […] dextran sulfate, 1 mg/mL nucellin, 1 mg/mL human transferrin (partially iron saturated), 50 mg/mL tobramycin, 20 mM HEPES, […] geneticin, 0.04% pluronic F68. The cells are grown overnight to condition the media. The next morning the conditioned media (−150 mL total) is removed and set aside in a sterile container. The cells are trypsinized and collected in the conditioned media. […]
To prepare membranes, the above pellets are resuspended in ice-cold Tris buffer (20 mM Tris HCl, pH 7.4 at 23° C., 5 mM EDTA) and homogenized with a Wheaton tissue grinder. […] Protein concentrations are determined by the method of Bradford. […]
(§1) [^3H] […] The reactions are incubated at room temperature for 3 hr. and then counted in a Trilux Microbeta™ scintillation counter to detect receptor-bound radioligand. Binding data is analyzed by computer-assisted 4 parameter fit analysis (ID Business Solutions Ltd, Guildford, Surrey, UK). […]

The target of a further experiment is T2, 5-HT4 (Homo sapiens, UniProt Q13639).
T2 construct: expressed in transfected cells
T2 sequence (Q13639 whole entry, species assumed): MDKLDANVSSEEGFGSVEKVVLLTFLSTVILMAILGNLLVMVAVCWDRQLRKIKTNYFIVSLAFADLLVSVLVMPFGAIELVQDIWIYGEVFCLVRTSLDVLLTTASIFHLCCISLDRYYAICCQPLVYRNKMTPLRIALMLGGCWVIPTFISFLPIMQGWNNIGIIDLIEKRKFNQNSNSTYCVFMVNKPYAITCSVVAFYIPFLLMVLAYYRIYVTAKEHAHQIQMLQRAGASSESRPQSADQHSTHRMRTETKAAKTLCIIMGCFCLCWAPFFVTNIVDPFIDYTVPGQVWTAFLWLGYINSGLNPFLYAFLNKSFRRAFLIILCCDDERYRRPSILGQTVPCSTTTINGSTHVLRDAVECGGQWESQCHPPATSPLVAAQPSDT
The experiment can be described thus: Radioligand binding assay, 5-HT4 subtype. How it is done: as §1
(§2) Affinity for other serotonin receptor subtypes as well as for alpha 1 & 2 adrenergic receptors can readily be determined by modification of the above described radioligand receptor binding assay using membranes derived from cells stably expressing the desired receptor subtype including the 5-HT1A, 5-HT1B, and 5-HT1D subtypes, as well as the 5-HT2A, 5-HT2B, 5-HT2C, 5-HT4, 5-HT5, and 5-HT6 receptor subtypes. […]

Another experiment deals with T3, 5-HT1A (Homo sapiens, UniProt P08908).
T3 construct: expressed in transfected cells
T3 sequence (P08908 1-422): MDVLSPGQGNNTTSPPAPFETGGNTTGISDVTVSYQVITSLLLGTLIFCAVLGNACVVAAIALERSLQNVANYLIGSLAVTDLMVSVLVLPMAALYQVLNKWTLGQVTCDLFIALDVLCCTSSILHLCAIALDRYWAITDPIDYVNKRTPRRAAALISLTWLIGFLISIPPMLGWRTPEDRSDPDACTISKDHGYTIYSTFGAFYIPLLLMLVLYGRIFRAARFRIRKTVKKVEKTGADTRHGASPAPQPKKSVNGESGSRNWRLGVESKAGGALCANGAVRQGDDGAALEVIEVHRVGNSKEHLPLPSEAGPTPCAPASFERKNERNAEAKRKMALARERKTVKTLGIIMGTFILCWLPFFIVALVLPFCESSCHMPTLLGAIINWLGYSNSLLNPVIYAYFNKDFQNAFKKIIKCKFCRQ
Description: Radioligand binding assay, 5-HT1A subtype. As to the method:
as §1, §2

The next experiment addresses T4, 5-HT1B (Homo sapiens, UniProt P28222).
T4 construct: expressed in transfected cells
Description: Radioligand binding assay, 5-HT1B subtype. How it is done: as §1, §2

A further experiment has as its target T5, 5-HT6 (Homo sapiens, UniProt P50406).
T5 construct: expressed in transfected cells
Description: Radioligand binding assay, 5-HT6 subtype. How it is done: as §1, §2

The target in another experiment is T6, 5-HT2C (Homo sapiens, UniProt P28335).
T6 construct: expressed in transfected cells
T6 sequence (P28335 33-458): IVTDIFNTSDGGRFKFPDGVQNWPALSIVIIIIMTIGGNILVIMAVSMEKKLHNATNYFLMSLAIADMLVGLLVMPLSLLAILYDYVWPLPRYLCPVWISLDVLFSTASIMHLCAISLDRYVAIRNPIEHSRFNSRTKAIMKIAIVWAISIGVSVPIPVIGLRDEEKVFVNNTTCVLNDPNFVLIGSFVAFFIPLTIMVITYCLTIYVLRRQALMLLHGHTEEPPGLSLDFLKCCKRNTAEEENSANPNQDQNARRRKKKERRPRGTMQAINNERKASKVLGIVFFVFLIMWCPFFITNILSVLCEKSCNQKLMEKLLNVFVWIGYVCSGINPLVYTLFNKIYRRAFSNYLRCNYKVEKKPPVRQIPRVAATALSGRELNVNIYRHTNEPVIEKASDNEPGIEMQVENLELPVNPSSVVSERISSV
The experiment can be described thus: Radioligand binding assay, 5-HT2C subtype. As to the method: as §1, §2

The target in a further experiment is T7, 5-HT1D (Homo sapiens, UniProt P28221).
T7 construct: expressed in transfected cells
T7 sequence (P28221 whole entry, species assumed): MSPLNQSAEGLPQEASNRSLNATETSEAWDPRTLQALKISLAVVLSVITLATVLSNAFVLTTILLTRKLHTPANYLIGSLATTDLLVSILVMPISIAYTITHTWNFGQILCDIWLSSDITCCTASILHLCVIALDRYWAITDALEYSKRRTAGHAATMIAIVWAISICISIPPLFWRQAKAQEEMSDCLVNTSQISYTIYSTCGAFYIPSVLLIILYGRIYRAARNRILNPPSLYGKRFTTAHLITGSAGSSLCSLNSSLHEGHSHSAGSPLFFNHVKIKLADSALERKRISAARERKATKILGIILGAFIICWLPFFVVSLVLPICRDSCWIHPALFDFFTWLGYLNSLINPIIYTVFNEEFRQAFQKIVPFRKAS
Description: Radioligand binding assay, 5-HT1D subtype. How it is done: as §1, §2

T4 sequence (P28222 whole entry, species assumed): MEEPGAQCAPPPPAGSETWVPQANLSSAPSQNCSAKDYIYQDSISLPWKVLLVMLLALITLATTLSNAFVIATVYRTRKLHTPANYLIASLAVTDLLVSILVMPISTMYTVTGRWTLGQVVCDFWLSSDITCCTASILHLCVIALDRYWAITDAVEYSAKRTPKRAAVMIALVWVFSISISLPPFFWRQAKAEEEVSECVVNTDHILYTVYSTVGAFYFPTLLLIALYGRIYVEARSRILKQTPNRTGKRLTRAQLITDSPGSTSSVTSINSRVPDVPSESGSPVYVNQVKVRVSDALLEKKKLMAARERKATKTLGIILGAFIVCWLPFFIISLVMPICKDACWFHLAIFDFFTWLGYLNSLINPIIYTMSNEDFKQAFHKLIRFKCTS
T5 sequence (P50406 whole entry, species assumed): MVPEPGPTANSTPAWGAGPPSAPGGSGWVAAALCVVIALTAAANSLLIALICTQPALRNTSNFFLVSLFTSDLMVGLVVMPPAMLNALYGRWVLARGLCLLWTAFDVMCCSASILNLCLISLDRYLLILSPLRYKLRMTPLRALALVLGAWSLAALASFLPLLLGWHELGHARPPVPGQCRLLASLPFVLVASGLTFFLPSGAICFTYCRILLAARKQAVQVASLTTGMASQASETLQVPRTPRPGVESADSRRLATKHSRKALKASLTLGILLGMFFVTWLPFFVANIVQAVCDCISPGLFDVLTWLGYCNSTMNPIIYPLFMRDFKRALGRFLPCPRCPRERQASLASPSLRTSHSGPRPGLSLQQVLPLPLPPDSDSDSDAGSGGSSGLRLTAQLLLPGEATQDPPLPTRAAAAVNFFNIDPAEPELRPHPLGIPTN

As to `COCc1ccc(-c2nccnc2N2CCN(CCN(C)S(=O)(=O)c3cnn(C)c3)CC2)cc1.Cl` [Example 25, 1-Methyl-1H-pyrazole-4-sulfonic acid {2-[3′-(4-methoxymethyl-phenyl)-2,3,5,6-tetrahydro-[1,2′]bipyrazinyl-4-yl]-ethyl}-methyl-amide hydrochloride], the Ki was ~19.4 nM and 19.4 nM at 5-HT7 receptor; above 4120 nM at 5-HT4; 2070 nM at 5-HT1A; 3240 nM on 5-HT1B; above 5830 nM on 5-HT6; above 8360 nM at 5-HT2C. The compound further showed a Ki on 5-HT1D of 1270 nM.
